Structures can show the parent of a compound that is named as a salt.
Experiments:
[1] = target: T1, NMDA receptor subunits 1A/2A (Rattus norvegicus, UniProt P35439+Q00959); assay: Electrophysiological assay at NMDA receptor subunits expressed in Xenopus oocytes, 1A/2A; assay type: cell-based; settings: glutamate 100 μm and glycine 1-100 μm
T1 construct: expressed in transfected cells; host or cells: Xenopus laevis oocytes (cRNA injection; clones from Dr. P. H. Seeburg)
Protocol: (§1) Many of the properties of native NMDA receptors are seen in recombinant homomeric NR1 receptors. These properties are altered by the NR2 subunits. Recombinant NMDA receptors expressed in Xenopus oocytes have been studied by voltage-clamp recording, as has developmental and regional expression of the mRNAs encoding NMDA receptor subunits. Electrophysiological assays were utilized to characterize the actions of compounds at NMDA receptors expressed in Xenopus oocytes. The compounds were assayed at four subunit combinations of cloned rat NMDA receptors, corresponding to three putative NMDA receptor subtypes [Moriyoshi, et al. Nature 1991, 354, 31-37; Monyer et al, Science 1992, 256, 1217-1221; Kutsuwada et al, Nature 1992, 358, 36-41; Sugihara et al, Biochem. Biophys Res. Commun. 1992, 185, 826-832].
(§2) Electrophysiological Assays at NMDA Receptor Subunits
(§3) Preparation of RNA. cDNA clones encoding the NR1A, NR2A, NR2B, NR2C and NR2D rat NMDA receptor subtypes were provided by Dr. P. H. Seeburg (see, Moriyoshi et al., Nature (Lond.) 354:31-37 (1991); Kutsuwada et al., Nature (Lond.) 358:36-41 (1992) Monyer et al., Science (Washington, D.C.) 256:1217-1221 (1992); Ikeda et al., FEBS Lett. 313:34-38 (1992); Ishii et al., J. Biol. Chem. 268:2836-2843 (1993) for details of these clones or their mouse homologs). The clones were transformed into appropriate host bacteria and plasmid preparations were made with conventional DNA purification techniques. A sample of each clone was linearized by restriction enzyme digestion and cRNA was synthesized with T3 RNA polymerase. The cRNA was diluted to 400 ng/μl and stored in 1 μl aliquots at -80° C. until injection.
(§4) The Xenopus oocyte expression system. Mature female Xenopus laevis were anaesthetized (20-40 min) using 0.15% 3-aminobenzoic acid ethyl ester (MS-222) and 2-4 ovarian lobes were surgically removed. Oocytes at developmental stages IV-VI (Dumont, J. N., J. Morphol. 136:153-180 (1972)), were dissected from the ovary still surrounded by enveloping ovarian tissues. Follicle-enclosed oocytes were micro-injected with 1:1 mixtures of cRNA:NR1A+NR2A, 2B, 2C or 2D; injecting ~2,5, or 20 ng of RNA encoding each receptor subunit. NR1A encoding cRNA was injected alone at ~20 ng. Oocytes were stored in Barth's medium containing (in mM):NaCl, 88; KCl, 1; CaCl2, 0.41; Ca(NO3)2, 0.33; MgSO4, 0.82 NaHCO3, 2.4; HEPES 5, pH 7.4, with 0.1 mg/ml gentamicin sulphate. While oocytes were still surrounded by enveloping ovarian tissues the Barth's medium was supplemented with 0.1% bovine serum. Oocytes were defolliculated 1-2 days following injections by treatment with collagenase (0.5 mg/ml Sigma Type I for 0.5-1 hr) (Miledi and Woodward, J. Physiol. (Lond.) 416:601-621 (1989)) and subsequently stored in serum-free medium.
(§5) Electrical recordings were made using a conventional two-electrode voltage clamp (Dagan TEV-200) over periods ranging between 3-21 days following injection. (Woodward et al., Mol. Pharmacol. 41: 89-103 (1992)). Oocytes were placed in a 0.1 ml recording chamber continuously perfused (5-15 ml min^-1 ) with frog Ringer's solution containing (in mM):NaCl, 115; KCl, 2; CaCl2, 1.8; HEPES, 5; pH 7.4. Drugs were applied by bath perfusion. Using oocytes expressing different subunit combinations of NMDA receptor, NMDA currents were activated by co-application of glutamate (100 μm) and glycine (1-100 μm). Inhibitory potency of the novel antagonists was assessed on responses elicited by fixed concentrations of glutamate and glycine, by measuring reductions in current induced by progressively increasing concentrations of antagonist. Concentration-inhibition curves were fit with equation 1.
(§6) I/Icontrol =1/(1+([antagonist]/10^-pIC50)^n) Eq. 1
(§7) in which Icontrol is the current evoked by agonists alone, pIC50 =-log IC50, IC50 is the concentration of antagonist that produces half maximal inhibition, and n is the slope factor. (De Lean et al., Am. J. Physiol. 235:E97-102 (1978)). […]

[2] = target: T2, NMDA receptor subunits 1A/2B (Rattus norvegicus, UniProt P35439+Q00960); assay: Electrophysiological assay at NMDA receptor subunits expressed in Xenopus oocytes, 1A/2B; assay type: cell-based; settings: Xenopus oocytes; glutamate 100 μm and glycine 1-100 μm; read-out: Subunits IC50, 1A/2B
T2 construct: expressed in transfected cells; host or cells: Xenopus laevis oocytes (cRNA injection; clones from Dr. P. H. Seeburg)
Protocol: as §1, §2, §3, §4, §5, §6, §7

[3] = target: T3, NMDA receptor subunits 1A/2C (Rattus norvegicus, UniProt P35439+Q00961); assay: Electrophysiological assay at NMDA receptor subunits expressed in Xenopus oocytes, 1A/2C; assay type: cell-based; settings: Xenopus oocytes; glutamate 100 μm and glycine 1-100 μm; read-out: Subunits IC50, 1A/2C
T3 construct: expressed in transfected cells; host or cells: Xenopus laevis oocytes (cRNA injection; clones from Dr. P. H. Seeburg)
Protocol: as §1, §2, §3, §4, §5, §6, §7

[4] = tested on: Maximal Electroshock-induced Seizures; assay: Maximal electroshock-induced seizures (MES); assay type: in vivo; settings: Mus musculus; mice; 50 mA, 60 pulses/sec, 1 sec
Excerpt: Seizures were induced by application of current (50 mA, 60 pulses/sec, 0.8 sec pulse width, 1 sec duration, d.c.) through saline-coated corneal electrodes using a Ugo Basile ECT device (Model 7801). […] A tonic seizure was defined as a hindlimb extension in excess of 90 degrees from the plane of the body.

T2 sequence (Q00960 27-1482, other chains not shown): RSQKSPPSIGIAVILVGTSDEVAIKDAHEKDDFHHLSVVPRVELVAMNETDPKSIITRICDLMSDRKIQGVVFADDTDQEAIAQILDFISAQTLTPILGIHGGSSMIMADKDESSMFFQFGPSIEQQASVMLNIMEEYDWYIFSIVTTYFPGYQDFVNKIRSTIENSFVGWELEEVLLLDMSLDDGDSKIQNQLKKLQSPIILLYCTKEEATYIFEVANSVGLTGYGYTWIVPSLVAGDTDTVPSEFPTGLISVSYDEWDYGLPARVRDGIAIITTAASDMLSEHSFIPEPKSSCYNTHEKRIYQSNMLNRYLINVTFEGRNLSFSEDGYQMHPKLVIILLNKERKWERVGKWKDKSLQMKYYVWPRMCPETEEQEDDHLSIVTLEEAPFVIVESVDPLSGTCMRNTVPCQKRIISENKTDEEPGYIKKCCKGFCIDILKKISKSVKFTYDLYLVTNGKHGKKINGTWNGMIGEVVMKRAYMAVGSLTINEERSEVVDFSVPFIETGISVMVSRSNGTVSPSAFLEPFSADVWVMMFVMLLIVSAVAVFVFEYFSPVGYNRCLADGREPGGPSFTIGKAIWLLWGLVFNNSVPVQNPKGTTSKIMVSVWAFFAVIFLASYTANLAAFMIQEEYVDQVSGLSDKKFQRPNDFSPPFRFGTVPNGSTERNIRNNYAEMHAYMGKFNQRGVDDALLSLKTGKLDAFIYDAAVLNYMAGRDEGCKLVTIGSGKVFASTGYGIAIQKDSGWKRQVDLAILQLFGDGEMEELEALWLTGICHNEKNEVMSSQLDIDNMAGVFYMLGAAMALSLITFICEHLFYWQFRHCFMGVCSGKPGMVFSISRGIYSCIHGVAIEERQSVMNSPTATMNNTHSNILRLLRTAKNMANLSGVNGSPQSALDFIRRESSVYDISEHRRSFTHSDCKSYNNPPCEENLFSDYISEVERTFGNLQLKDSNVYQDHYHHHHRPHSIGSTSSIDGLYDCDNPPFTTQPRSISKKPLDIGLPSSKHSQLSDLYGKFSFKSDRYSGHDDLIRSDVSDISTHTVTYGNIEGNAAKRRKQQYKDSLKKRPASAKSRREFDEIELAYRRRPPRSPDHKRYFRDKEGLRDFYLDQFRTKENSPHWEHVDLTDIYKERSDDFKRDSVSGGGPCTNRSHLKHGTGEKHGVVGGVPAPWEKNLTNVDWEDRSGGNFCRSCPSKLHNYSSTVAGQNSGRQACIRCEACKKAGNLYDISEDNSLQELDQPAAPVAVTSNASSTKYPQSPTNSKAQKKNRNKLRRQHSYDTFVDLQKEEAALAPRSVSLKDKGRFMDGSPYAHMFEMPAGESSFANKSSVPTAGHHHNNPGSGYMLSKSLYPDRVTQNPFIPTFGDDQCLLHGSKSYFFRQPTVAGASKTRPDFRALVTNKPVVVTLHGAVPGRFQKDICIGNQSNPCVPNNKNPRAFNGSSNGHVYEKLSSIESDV
T1 sequence (Q00959 20-1464 limits assumed, other chains not shown): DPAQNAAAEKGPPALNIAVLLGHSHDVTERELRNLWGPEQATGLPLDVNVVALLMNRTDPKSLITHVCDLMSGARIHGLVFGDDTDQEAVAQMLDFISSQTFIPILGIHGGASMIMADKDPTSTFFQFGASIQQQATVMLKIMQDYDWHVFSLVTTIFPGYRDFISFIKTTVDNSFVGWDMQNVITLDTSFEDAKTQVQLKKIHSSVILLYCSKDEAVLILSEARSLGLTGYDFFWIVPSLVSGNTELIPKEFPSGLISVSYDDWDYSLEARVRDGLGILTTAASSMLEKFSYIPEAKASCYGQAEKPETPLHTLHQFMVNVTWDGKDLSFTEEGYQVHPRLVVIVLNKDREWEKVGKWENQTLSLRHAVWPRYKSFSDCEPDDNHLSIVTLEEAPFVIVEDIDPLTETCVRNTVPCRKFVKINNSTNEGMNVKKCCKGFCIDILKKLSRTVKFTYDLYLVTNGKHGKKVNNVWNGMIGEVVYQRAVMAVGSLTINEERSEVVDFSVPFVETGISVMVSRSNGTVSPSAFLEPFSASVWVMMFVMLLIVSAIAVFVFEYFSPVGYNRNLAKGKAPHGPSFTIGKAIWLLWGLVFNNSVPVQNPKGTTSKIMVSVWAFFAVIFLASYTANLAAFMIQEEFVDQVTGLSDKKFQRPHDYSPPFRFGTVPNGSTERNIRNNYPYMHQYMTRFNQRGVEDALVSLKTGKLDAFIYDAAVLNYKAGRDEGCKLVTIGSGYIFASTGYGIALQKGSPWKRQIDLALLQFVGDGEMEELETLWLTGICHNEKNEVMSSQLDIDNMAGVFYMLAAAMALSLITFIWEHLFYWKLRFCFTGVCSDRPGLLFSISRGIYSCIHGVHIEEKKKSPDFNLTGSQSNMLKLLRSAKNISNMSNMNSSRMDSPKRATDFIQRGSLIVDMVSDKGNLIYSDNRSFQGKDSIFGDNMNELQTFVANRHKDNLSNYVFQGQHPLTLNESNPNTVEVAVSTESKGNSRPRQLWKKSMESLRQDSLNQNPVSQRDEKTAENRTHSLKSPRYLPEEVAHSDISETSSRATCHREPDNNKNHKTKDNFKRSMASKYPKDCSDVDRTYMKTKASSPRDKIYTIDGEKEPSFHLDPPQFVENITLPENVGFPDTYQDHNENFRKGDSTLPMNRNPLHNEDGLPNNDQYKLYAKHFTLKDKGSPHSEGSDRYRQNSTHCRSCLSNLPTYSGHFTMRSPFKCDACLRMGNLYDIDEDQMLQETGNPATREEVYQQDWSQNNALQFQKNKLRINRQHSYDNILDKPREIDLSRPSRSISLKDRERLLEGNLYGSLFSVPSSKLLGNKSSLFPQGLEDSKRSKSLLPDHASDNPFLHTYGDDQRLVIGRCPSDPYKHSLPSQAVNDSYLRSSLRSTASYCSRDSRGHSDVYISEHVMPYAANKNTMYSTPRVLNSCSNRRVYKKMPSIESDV
T3 sequence (Q00961 20-1237, other chains not shown): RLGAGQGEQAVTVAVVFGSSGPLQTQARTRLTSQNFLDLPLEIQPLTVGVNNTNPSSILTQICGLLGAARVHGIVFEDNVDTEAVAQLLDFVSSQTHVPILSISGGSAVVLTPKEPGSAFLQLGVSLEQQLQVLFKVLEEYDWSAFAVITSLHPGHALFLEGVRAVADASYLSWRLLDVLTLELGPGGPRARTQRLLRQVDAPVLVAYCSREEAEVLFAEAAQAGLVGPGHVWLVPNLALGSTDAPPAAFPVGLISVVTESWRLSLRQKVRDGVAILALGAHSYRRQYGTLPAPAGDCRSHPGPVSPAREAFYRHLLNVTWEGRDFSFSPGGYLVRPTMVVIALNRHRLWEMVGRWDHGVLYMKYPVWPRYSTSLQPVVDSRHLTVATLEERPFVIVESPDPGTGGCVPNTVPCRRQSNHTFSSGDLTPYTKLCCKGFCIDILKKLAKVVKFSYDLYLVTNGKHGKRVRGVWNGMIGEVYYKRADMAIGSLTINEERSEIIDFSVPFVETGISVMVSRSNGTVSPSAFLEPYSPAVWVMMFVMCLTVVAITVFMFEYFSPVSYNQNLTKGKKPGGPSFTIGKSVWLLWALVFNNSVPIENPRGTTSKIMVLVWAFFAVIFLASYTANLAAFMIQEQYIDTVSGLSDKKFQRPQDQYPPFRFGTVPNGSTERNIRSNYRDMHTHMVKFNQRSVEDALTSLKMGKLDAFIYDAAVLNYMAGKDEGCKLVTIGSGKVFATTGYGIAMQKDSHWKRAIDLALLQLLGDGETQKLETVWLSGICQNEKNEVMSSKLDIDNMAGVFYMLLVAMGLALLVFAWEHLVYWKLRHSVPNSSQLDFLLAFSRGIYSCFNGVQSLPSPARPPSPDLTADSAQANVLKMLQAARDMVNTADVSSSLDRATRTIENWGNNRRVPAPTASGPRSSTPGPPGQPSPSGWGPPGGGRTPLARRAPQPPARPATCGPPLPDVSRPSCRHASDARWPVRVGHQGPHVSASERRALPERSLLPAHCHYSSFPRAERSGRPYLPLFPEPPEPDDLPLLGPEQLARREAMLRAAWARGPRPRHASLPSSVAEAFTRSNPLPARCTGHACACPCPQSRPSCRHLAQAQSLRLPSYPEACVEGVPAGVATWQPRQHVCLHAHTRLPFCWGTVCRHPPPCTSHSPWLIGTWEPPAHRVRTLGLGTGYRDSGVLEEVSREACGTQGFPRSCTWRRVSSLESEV

Structure (SMILES)	IC50 [1] [µM]	IC50 [2] [µM]	IC50 [3] [µM]	ED50 [4] [mg/kg]
c1ccc(CC2CCN(CCCOc3ccccc3)CC2)cc1 [Ex. 2, 4-Benzyl-1-(3-phenoxypropyl)piperidine]	89	1.1	> 100	3
OC(COc1cccc2ccccc12)CN1CCC(Cc2ccccc2)CC1 (centres unmarked) [Ex. 3, 4-Benzyl-1-[2-hydroxy-3-(1-naphthyloxy)propyl]piperidine]	35	2.8	> 100	2
Br.Br.Nc1ccc(OCCN2CCC(Cc3ccccc3)CC2)cc1 [Ex. 13, 1-(2-(4-Aminophenoxy)ethyl)-4-benzylpiperidine dihydrobromide]	90	1.3	> 100	6
Cl.O=Cc1cccc(OCCN2CCC(Cc3ccccc3)CC2)c1 [Ex. 15, 3-((2-(4-Benzylpiperidin-1-yl)ethyl)oxy)benzaldehyde hydrochloride]	–	1.2	> 100	100
ON=Cc1cccc(OCCN2CCC(Cc3ccccc3)CC2)c1 [Ex. 16, 3-((2-(4-Benzylpiperidin-1-yl)ethyl)oxy)benzaldehyde oxime]	–	0.5	> 100	2.5
OCCc1cccc(OCCN2CCC(Cc3ccccc3)CC2)c1 [Ex. 18, 4-Benzyl-1-(2-(3-(2-hydroxyethyl)phenoxy)ethyl)piperidine]	60	0.4	> 100	6
NC(=O)Cc1cccc(OCCN2CCC(Cc3ccccc3)CC2)c1 [Ex. 19, 1-(2-(3-(Aminocarbonylmethyl)phenoxy)ethyl)-4-benzylpiperidine]	–	0.35	–	6
Fc1cccc(OCCCN2CCC(Cc3ccccc3)CC2)c1 [Ex. 22, 4-Benzyl-1-(3-(3-fluorophenoxy)propyl)piperidine hydrobromide]	90	0.9	> 100	4
Clc1ccc(CC2CCN(CCOc3ccccc3)CC2)cc1 [Ex. 24, 4-(4-Chlorobenzyl)-1-(2-phenoxyethyl)piperidine hydrochloride]	70	1	100	2
O=[N+]([O-])c1ccc(OCCN2CCC(Cc3ccc(Cl)cc3)CC2)cc1 [Ex. 27, 4-(4-Chlorobenzyl)-1-(2-(4-nitrophenoxy)ethyl)piperidine hydrobromide]	–	5	> 100	5
Br.Br.Nc1ccc(OCCN2CCC(Cc3ccc(Cl)cc3)CC2)cc1 [Ex. 28, 1-(2-(4-Aminophenoxy)ethyl)-4-(4-chlorobenzyl)piperidine dihydrobromide]	38	0.4	> 100	5
Clc1ccc(CC2CCN(CCCOc3ccccc3)CC2)cc1 [Ex. 30, 4-(4-Chlorobenzyl)-1-(3-phenoxypropyl)piperidine hydrobromide]	50	0.8	100	6
Fc1cccc(OCCCN2CCC(Cc3ccc(Cl)cc3)CC2)c1 [Ex. 31, 4-(4-Chlorobenzyl)-1-(3-(3-fluorophenoxy)propyl)piperidine hydrobromide]	34	0.9	60	7.5
Fc1ccc(CC2CCN(CCOc3ccc(F)cc3)CC2)cc1 [Ex. 33, 4-(4-Fluorobenzyl)-1-(2-(4-fluorophenoxy)ethyl)piperidine hydrochloride]	–	2	> 100	4
Fc1ccc(OCCN2CCC(Nc3ccc(Cl)cc3)CC2)cc1 [Ex. 38, 4-(4-Chloroanilino)-1-(2-(4-fluorophenoxy)ethyl)piperidine dihydrochloride]	75	45	> 100	10
Clc1ccc(NC2CCN(CCCOc3ccccc3)CC2)cc1 [Ex. 40, 4-(N-(4-Chloroanilino)-1-(3-phenoxypropyl)piperidine hydrobromide]	80	3	100	2.5
Nc1cccc(OCCN2CCC(Cc3ccccc3)CC2)c1N [Ex. 53, 4-Benzyl-1-[2-(2,3-diaminophenoxy)ethyl]piperidine]	–	0.31	> 100	2.5
Nc1ccc(OCCN2CCC(Cc3ccccc3)CC2)cc1N [Ex. 57, 4-Benzyl-1-[2-(3,4-diaminophenoxy)ethyl]piperidine]	–	0.3	> 100	6.5
Nc1ccccc1OCCN1CCC(Cc2ccccc2)CC1 [Ex. 61, 4-Benzyl-1-[2-(2-aminophenoxy)ethyl]piperidine]	–	0.3	> 100	2.5
Nc1cccc(OCCN2CCC(Cc3ccccc3)CC2)c1 [Ex. 63, 4-Benzyl-1-[2-(3-aminophenoxy)ethyl]piperidine]	–	0.5	> 100	3
Nc1ccc(OCCN2CCC(Cc3ccccc3)CC2)cc1 [Ex. 65, 4-Benzyl-1-[2-(4-aminophenoxy)ethyl]piperidine]	–	–	–	6
COc1ccc(OCCN2CCC(Cc3ccccc3)CC2)cc1 [Ex. 70]	–	1	> 100	1.5
c1ccc(CCN2CCC(Cc3ccccc3)CC2)cc1 [Ex. 83, 4-Benzyl-1-(2-phenylethyl)piperidine hydrochloride]	–	1	> 100	2
OC1(Cc2ccccc2)CCN(CCc2ccccc2)CC1 [Ex. 90, 4-Benzyl-4-hydroxy-1-(2-phenylethyl)piperidine hydrochloride]	–	5	> 100	5
O=c1[nH]c2ccccc2n1C1CCN(CCCOc2ccccc2)CC1 [Ex. 96, 4-(2-Keto-1-benzimidazolinyl)-1-(3-phenoxypropyl)piperidine hydrobromide]	–	17	> 100	3.5
Oc1ccc(OCCN2CCC(Cc3ccc4c(c3)CCCC4)CC2)cc1 [Ex. 139, 4-((5,6,7,8-Tetrahydro-2-naphthyl)methyl)-1-(2-(4-hydroxyphenoxy)ethyl)piperidine hydrochloride]	70	0.25	–	4.5
Cl.Oc1ccc(OCCN2CCC(Cc3ccc(F)cc3)CC2)cc1F [Ex. 150, 1-[2-(4-Hydroxy-3-fluorophenoxy)ethyl]-4-(4-fluorobenzyl)piperidine hydrochloride]	–	0.02	> 300	3
